Test system: Staphylococcus aureus ATCC 33591
Assay: Adherence of bacteria on catheter segments
Format: cell-based
Settings: against the tested organisms
Description: In addition to fibrinolytic activity, antimicrobial activity of the 1% LMW-DexS (8 kDa) treated catheters was evaluated. In this test, adherence of gram positive bacteria Staphylococcus aureus ATCC 33591, on the catheter segments having immobilized enzyme uPA stabilized with 1% LMW-DexS (8 kDa), along with the antimicrobial agents such as gentian violet (0.6%) and chlorhexidine dodecanoate was compared to similarly treated catheter segments but without the LMW-DexS (8 kDa) stabilized enzyme.

Row | Structure (SMILES) | antimicrobial activity after attachment of LMW-DexS (8 kDa) stabilized urokinase
1 | CN(C)c1ccc(C(=C2C=CC(=[N+](C)C)C=C2)c2ccc(N(C)C)cc2)cc1 [gentian violet] | not compromised
2 | CCCCCCCCCCCC(=O)O.NC(=NCCCCCCN=C(N)N=C(N)Nc1ccc(Cl)cc1)N=C(N)Nc1ccc(Cl)cc1 [chlorhexidine dodecanoate] | not compromised
